Results taken from patent US8846746B2, “Pyrazole compound and pharmaceutical use thereof” (Japan Tobacco Inc., priority 2011, dated 2014).

Each molecule was assayed against human SGLT1 (Homo sapiens (Human), UniProt P13866) (assay: SGLT1 inhibitory activity: 14C-AMG uptake into CHO-K1 cell line stably expressing human SGLT1). Details: 14C-AMG uptake, CHO-K1 cells expressing human SGLT1.
Sequence of human SGLT1 (P13866 whole entry): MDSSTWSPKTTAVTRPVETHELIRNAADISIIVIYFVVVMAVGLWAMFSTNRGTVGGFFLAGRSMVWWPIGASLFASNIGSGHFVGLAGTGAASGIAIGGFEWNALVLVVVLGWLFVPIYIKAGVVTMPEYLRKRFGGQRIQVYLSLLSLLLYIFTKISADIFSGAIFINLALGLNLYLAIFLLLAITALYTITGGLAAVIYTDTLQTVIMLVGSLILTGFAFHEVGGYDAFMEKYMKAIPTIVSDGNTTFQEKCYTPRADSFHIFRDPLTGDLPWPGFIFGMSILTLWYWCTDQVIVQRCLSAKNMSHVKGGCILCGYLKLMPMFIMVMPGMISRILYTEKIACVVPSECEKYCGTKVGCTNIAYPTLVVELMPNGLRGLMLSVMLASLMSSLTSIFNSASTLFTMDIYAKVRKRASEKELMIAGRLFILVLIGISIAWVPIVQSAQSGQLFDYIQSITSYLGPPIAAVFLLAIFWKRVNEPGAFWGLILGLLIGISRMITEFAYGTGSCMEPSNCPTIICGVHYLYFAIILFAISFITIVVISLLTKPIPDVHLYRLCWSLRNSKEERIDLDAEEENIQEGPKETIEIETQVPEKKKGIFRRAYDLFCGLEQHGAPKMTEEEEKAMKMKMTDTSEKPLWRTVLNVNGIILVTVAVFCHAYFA
Assay type: cell-based
Outline: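 CHO-K1 cells stably expressing human SGLT1 were pre-incubated 20 min in Na(−) buffer (pH 7.4). Test compound in Na(+) buffer with BSA was added with ¹⁴C-AMG (8 kBq) plus unlabelled AMG (2 mM in the added solution) for 1 h at 37 °C.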
For `C[C@H]1C(=O)NC[C@@H]1C(=O)Nc1cc(-c2cccc(C(F)(F)F)c2)n(-c2ccccc2F)n1` [Example 229], the IC50 was 3.1 nM.
`Cc1ccc(-n2nc(NC(=O)[C@H]3CNC(=O)C3)cc2-c2cccc(C(F)(F)F)c2)cc1` [Example 230] showed an IC50 of 12 nM.
`Cc1ccc(-n2nc(NC(=O)[C@H]3CNC(=O)[C@@H]3C)cc2-c2cccc(C(F)(F)F)c2)cc1` [Example 231] was tested, and the IC50 was 6.7 nM.
`C[C@H]1C(=O)NC[C@@H]1C(=O)Nc1cc(-c2cccc(OC(F)(F)F)c2)n(CCC2CCOCC2)n1` [Example 232] showed an IC50 of 32 nM.
`Cc1ccc(-n2nc(NC(=O)[C@H]3CNC(=O)C3)cc2-c2cccc(OC(F)(F)F)c2)cc1` [Example 233] was tested, and the IC50 was 20 nM.
For `Cc1ccc(-n2nc(NC(=O)[C@H]3CNC(=O)[C@@H]3C)cc2-c2cccc(OC(F)(F)F)c2)cc1` [Example 234], the IC50 was 7.4 nM.

Same assay, conditions: 14C-AMG uptake, CHO-K1 cells stably expressing human SGLT1
Molecule `C[C@@H](OCc1cc(F)cc(-c2cc(NC(=O)[C@@H]3CNC(=O)C3)nn2-c2ccccc2)c1)C(F)(F)F` [Example 235, (S)-5-oxopyrrolidine-3-carboxylic acid{5-[3-fluoro-5-((R)-2,2,2-trifluoro-1-methylethoxymethyl)phenyl]-1-phenyl-1H-pyrazol-3-yl}amide] has an IC50 of 3.4 nM.
For `C[C@@H](OCc1cc(F)cc(-c2cc(NC(=O)[C@@H]3CNC(=O)C3)nn2-c2ccc(Cl)cc2)c1)C(F)(F)F` [Example 236, (S)-5-oxopyrrolidine-3-carboxylic acid{1-(4-chlorophenyl)-5-[3-fluoro-5-((R)-2,2,2-trifluoro-1-methylethoxymethyl)phenyl]-1H-pyrazol-3-yl}amide], the IC50 was 5.35 nM.
Molecule `C[C@@H](OCc1cc(F)cc(-c2cc(NC(=O)[C@@H]3CNC(=O)C3)nn2-c2ccccc2F)c1)C(F)(F)F` [Example 237, (S)-5-oxopyrrolidine-3-carboxylic acid{1-(2-fluorophenyl)-5-[3-fluoro-5-((R)-2,2,2-trifluoro-1-methylethoxymethyl)phenyl]-1H-pyrazol-3-yl}amide] has an IC50 of 3.85 nM.
Molecule `C[C@@H](OCc1cccc(-c2cc(NC(=O)[C@@H]3CNC(=O)C3)nn2-c2ccc(F)cc2)c1)C(F)(F)F` [Example 238, (S)-5-oxopyrrolidine-3-carboxylic acid{1-(4-fluorophenyl)-5-[3-((R)-2,2,2-trifluoro-1-methylethoxymethyl)phenyl]-1H-pyrazol-3-yl}amide] has an IC50 of 7.9 nM.
Work on `C[C@@H](OCc1cc(F)cc(-c2cc(NC(=O)[C@@H]3CNC(=O)C3)nn2-c2ccc(F)cc2)c1)C(F)(F)F` [Example 239, (S)-5-oxopyrrolidine-3-carboxylic acid{1-(4-fluorophenyl)-5-[3-fluoro-5-((R)-2,2,2-trifluoro-1-methylethoxymethyl)phenyl]-1H-pyrazol-3-yl}amide] yielded an IC50 of 7 nM.
In the case of `C[C@@H](OCc1cc(F)cc(-c2cc(NC(=O)[C@H]3CNC(=O)N3)nn2-c2ccc(F)cc2)c1)C(F)(F)F` [Example 240, (R)-2-oxoimidazolidine-4-carboxylic acid{1-(4-fluorophenyl)-5-[3-fluoro-5-((R)-2,2,2-trifluoro-1-methylethoxymethyl)phenyl]-1H-pyrazol-3-yl}amide], the IC50 is reported as 20 nM.
`C[C@@H](OCc1cc(Cl)cc(-c2cc(NC(=O)[C@@H]3CNC(=O)C3)nn2-c2ccccc2)c1)C(F)(F)F` [Example 241, (S)-5-oxopyrrolidine-3-carboxylic acid{5-[3-chloro-5-((R)-2,2,2-trifluoro-1-methylethoxymethyl)phenyl]-1-phenyl-1H-pyrazol-3-yl}amide] gave an IC50 of 9.95 nM.
`C[C@@H](OCc1cc(Cl)cc(-c2cc(NC(=O)[C@@H]3CNC(=O)C3)nn2-c2ccc(F)cc2)c1)C(F)(F)F` [Example 242, (S)-5-oxopyrrolidine-3-carboxylic acid{5-[3-chloro-5-((R)-2,2,2-trifluoro-1-methylethoxymethyl)phenyl]-1-(4-fluorophenyl)-1H-pyrazol-3-yl}amide] gave an IC50 of 9 nM.
In the case of `CC(C)(OCc1cc(Cl)cc(-c2cc(NC(=O)[C@@H]3CNC(=O)C3)nn2-c2ccccc2)c1)C(F)(F)F` [Example 243, (S)-5-oxopyrrolidine-3-carboxylic acid[5-[3-chloro-5-(2,2,2-trifluoro-1,1-dimethylethoxymethyl)phenyl]-1-phenyl-1H-pyrazol-3-yl]amide], the IC50 is reported as 14 nM.
Molecule `C[C@@H](OCc1cccc(-c2cc(NC(=O)[C@@H]3CNC(=O)C3)nn2-c2ccc(Cl)cc2)c1)C(F)(F)F` [Example 244, (S)-5-oxopyrrolidine-3-carboxylic acid{1-(4-chlorophenyl)-5-[3-((R)-2,2,2-trifluoro-1-methylethoxymethyl)phenyl]-1H-pyrazol-3-yl}amide] has an IC50 of 8 nM.
`CCCCc1cccc(-c2cc(NC(=O)[C@H]3CNC(=O)N3)nn2-c2ccccc2)c1` [Example 245, (R)-2-Oxoimidazolidine-4-carboxylic acid[5-(3-butylphenyl)-1-phenyl-1H-pyrazol-3-yl]amide] gave an IC50 of 19 nM.
Work on `O=C1C[C@H](C(=O)Nc2cc(-c3cccc(COC(C(F)(F)F)C(F)(F)F)c3)n(-c3ccccc3)n2)CN1` [Example 246, (S)-5-oxopyrrolidine-3-carboxylic acid{1-phenyl-5-[3-(2,2,2-trifluoro-1-trifluoromethylethoxymethyl)phenyl]-1H-pyrazol-3-yl}amide] yielded an IC50 of 11.5 nM.
In the case of `O=C1C[C@H](C(=O)Nc2cc(-c3cc(F)cc(COCC(F)(F)F)c3)n(-c3ccc(F)cc3)n2)CN1` [Example 248, (S)-5-oxopyrrolidine-3-carboxylic acid{1-(4-fluorophenyl)-5-[3-fluoro-5-(2,2,2-trifluoroethoxymethyl)phenyl]-1H-pyrazol-3-yl}amide], the IC50 is reported as 25 nM.
`CCCc1cccc(-c2cc(NC(=O)C34CNC(=O)C3C4)nn2-c2ccccc2)c1` (centres unmarked) [Example 249, 4-oxo-3-azabicyclo[3.1.0]hexane-1-carboxylic acid[1-phenyl-5-(3-propylphenyl)-1H-pyrazol-3-yl]amide] showed an IC50 of 39 nM.
With `CCCc1cccc(-c2cc(NC(=O)[C@@H]3CNC(=O)O3)nn2-c2ccccc2)c1` [Example 257] the IC50 was 76 nM.
Molecule `CCCc1cccc(-c2cc(NC(=O)[C@H]3CNC(=O)O3)nn2-c2ccccc2)c1` [Example 258] has an IC50 of 23 nM.
For `O=C1C[C@H](C(=O)Nc2cc(-c3cccc(OCC(F)(F)F)c3)n(-c3ccccc3)n2)CN1` [Example 260], the IC50 was 23 nM.
`CCCc1cccc(-c2cc(NC(=O)[C@@H]3CNC(=O)C3)nn2-c2ccccc2C)c1` [Example 261] was tested, and the IC50 was 3.77 nM.
Molecule `CCCc1cccc(-c2cc(NC(=O)[C@@H]3CNC(=O)C3)nn2-c2cccc(Cl)c2)c1` [Example 262] has an IC50 of 6 nM.
Molecule `O=C1NC[C@@H](C(=O)Nc2cc(-c3cccc(OC(F)(F)F)c3)n(-c3ccccc3)n2)O1` [Example 263] has an IC50 of 370 nM.
In the case of `O=C1NC[C@H](C(=O)Nc2cc(-c3cccc(OC(F)(F)F)c3)n(-c3ccccc3)n2)O1` [Example 264], the IC50 is reported as 39 nM.
With `O=C1NC[C@@H](C(=O)Nc2cc(-c3cccc(OC(F)(F)F)c3)n(-c3ccccc3)n2)N1` [Example 266] the IC50 was 45 nM.
With `O=C1NC[C@H](C(=O)Nc2cc(-c3cccc(OC(F)(F)F)c3)n(-c3ccccc3)n2)N1` [Example 267] the IC50 was 81 nM.
With `CCCCc1cccc(-c2cc(NC(=O)[C@@H]3CNC(=O)N3)nn2-c2ccccc2)c1` [Example 268] the IC50 was 8.5 nM.
`COC(C)(C)c1cccc(-c2cc(NC(=O)[C@H]3CNC(=O)N3)nn2-c2ccccc2)c1` [Example 269] showed an IC50 of 92 nM.
Work on `COC(C)(C)c1cccc(-c2cc(NC(=O)[C@@H]3CNC(=O)N3)nn2-c2ccccc2)c1` [Example 270] yielded an IC50 of 45 nM.
`COC(C)(C)c1cccc(-c2cc(NC(=O)C3CNC(=O)NC3)nn2-c2ccccc2)c1` [Example 271] was tested, and the IC50 was 290 nM.
`O=C1C[C@H](C(=O)Nc2cc(-c3cccc(OCCC(F)(F)F)c3)n(-c3ccccc3)n2)CN1` [Example 272] gave an IC50 of 37 nM.
With `O=C1C[C@H](C(=O)Nc2cc(-c3cccc(OCCCC(F)(F)F)c3)n(-c3ccccc3)n2)CN1` [Example 273] the IC50 was 27 nM.
For `O=C1C[C@H](C(=O)Nc2cc(-c3cccc(COCC(F)(F)F)c3)n(-c3ccccc3)n2)CN1` [Example 279], the IC50 was 17.5 nM.
`O=C1C[C@@H](C(=O)Nc2cc(-c3cccc(COCC(F)(F)F)c3)n(-c3ccccc3)n2)CN1` [Example 280] showed an IC50 of 9.8 nM.
`O=C1C[C@H](C(=O)Nc2cc(-c3cccc(COCCC(F)(F)F)c3)n(-c3ccccc3)n2)CN1` [Example 281] gave an IC50 of 21.5 nM.
`O=C1C[C@@H](C(=O)Nc2cc(-c3cccc(COCCC(F)(F)F)c3)n(-c3ccccc3)n2)CN1` [Example 282] showed an IC50 of 9.9 nM.
Work on `CCOCc1cccc(-c2cc(NC(=O)[C@@H]3CNC(=O)C3)nn2-c2ccccc2)c1` [Example 283] yielded an IC50 of 110 nM.
`CCCOc1cccc(-c2cc(NC(=O)[C@@H]3CNC(=O)C3)nn2-c2ccccc2)c1` [Example 284] gave an IC50 of 75 nM.

Same assay, conditions: CHO-K1, at 0.03 uM
Molecule `O=C1NCC(C(=O)Nc2cc(-c3cccc(OC(F)(F)F)c3)n(-c3ccccc3)n2)CN1` [Example 252] has an inhibition at 0.03 µM of 7%.

Same assay, conditions: CHO-K1, at 0.1 uM
Work on `CCCc1cccc(-c2cc(NC(=O)C3CNC(=O)NC3)nn2-c2ccccc2)c1` [Example 251] yielded an inhibition at 0.1 µM of 41%.
Molecule `COCc1cccc(-c2cc(NC(=O)[C@@H]3CNC(=O)C3)nn2-c2ccccc2)c1` [Example 265] has an inhibition at 0.1 µM of 17%.
In the case of `CCCc1cccc(-c2cc(NC(=O)C3CNC(=O)CO3)nn2-c2ccccc2)c1` (centres unmarked) [Example 275], the inhibition at 0.1 µM is reported as 48%.
Molecule `O=C1COC(C(=O)Nc2cc(-c3cccc(OC(F)(F)F)c3)n(-c3ccccc3)n2)CN1` (centres unmarked) [Example 276] has an inhibition at 0.1 µM of 30%.

Same assay, conditions: at 0.1 uM
For `CCCc1cccc(-c2cc(NC(=O)C3CNC(=O)CO3)nn2-c2ccccc2)c1` (centres unmarked) [Example 277], the “human SGLT1 % Inhibition” value was 48%.
With `O=C1COC(C(=O)Nc2cc(-c3cccc(OC(F)(F)F)c3)n(-c3ccccc3)n2)CN1` (centres unmarked) [Example 278] the “human SGLT1 % Inhibition” value was 34%.

Same assay, conditions: at 0.3 uM
For `CCCc1cccc(-c2cc(NC(=O)C3CCCC(=O)NC3)nn2-c2ccccc2)c1` (centres unmarked) [Example 255], the “human SGLT1 % Inhibition” value was 7%.
For `CCCc1cccc(-c2cc(NC(=O)C3CCCC(=O)NC3)nn2-c2ccccc2)c1` (centres unmarked) [Example 256], the “human SGLT1 % Inhibition” value was 3%.
